Measured values published in patent US20040180958A1, “Method of treatment” (priority 2002, published 2004).

Experiments:
[1] = tested on: micturition reflex of anaesthetised rats; assay: Continuous cystometry: effects of an alpha-2-delta ligand on the micturition reflex of anaesthetised rats; assay type: in vivo, rat
Description: Investigation into the Effects of an Alpha-2-delta Ligand on the Micturition Reflex of Anaesthetised Rats
Four caesarean derived (CD) rats weighing approximately 225 g were anaesthetised using urethane and continuous cystometry performed.
The animals were anaesthetised using urethane (1.2 g/kg, i.p.). Depth of anaesthesia was assessed by the stability of blood pressure and heart rate, and by an absence of hind limb withdrawal in response to paw pinch. Supplementary doses of urethane ([…], i.v.) were given where necessary.
The trachea was intubated to maintain a patent airway, an external jugular vein was cannulated for drug administration, and a common carotid artery was cannulated with a heparinised cannula (20 units/ml heparin in 0.9% w/v saline) for the measurement of arterial blood pressure.
Blood pressure was measured using a pressure transducer and the heart rate (HR) derived electronically on-line from the blood pressure using PoneMah (Linton Pty Ltd UK). Body temperature was monitored with a rectal temperature probe and maintained between 36-38° C. using a homeothermic blanket system (Harvard, UK). Animals were allowed to breathe air spontaneously throughout the duration of the experiment.
The urinary bladder was exposed by a midline abdominal incision. A cannula (c. 0.52 mm internal and 1.2 mm external diameter) was inserted into the bladder dome as a means of infusing the bladder while simultaneously recording intravesical bladder pressure. The bladder was infused with physiological saline (0.9%) at the rate of 0.046 ml/min, to simulate the maximal hourly diuresis rate of the rat (Klevmark B [1974]—Motility of the urinary bladder in cats during filling at physiological rates. I. Intravesical pressure patterns studied by a new method of cystometry. Acta Physiol Scand 90(3): 565-77).
Following the surgical procedure the animals were allowed to stabilise for c. 30 min. After the stabilisation period, cystometry was performed and bladder function (interval between micturition) in response to Gabapentin-HCl (0.3, 1, 3 and 10 mg/kg administered intravenously) was monitored.
Differences between treatment groups were examined using ANOVA.
Gabapentin-HCl (Tocris, UK) was dissolved in saline.

[2] = tested on: male spontaneously hypertensive rat (SHR); assay: Micturition frequency and bladder pressure by telemetry in the male spontaneously hypertensive rat (SHR); assay type: in vivo; conditions: 60 mg/kg s/c
Description: Effect of an Alpha-2-delta Ligand on Micturition Frequency and Bladder Pressure in the Male Spontaneously Hypertensive Rat (SHR)
Eight (8) male spontaneously hypertensive rats were prepared surgically with Data Sciences International (DSI) telemetry transponders (TL11M2-C50-PXT). Bladder pressure was continuously monitored with the aid of a pressure catheter placed via the dome of the bladder.
Bladder parameters (bladder pressure, voiding pressure and the number of voids) were recorded in response to placebo or treatment with 60 mg/kg Gabapentin administered subcutaneously (s/c).

| Compound | melting point [°C] | micturition interval ([1]; 10 mg/kg intravenously, control 3.1±0.29 min, P<0.05) [min] | adverse effects on micturition efficiency, urine retention or bladder contraction upon voiding ([1]; 10 mg/kg, anaesthetised rats) | bladder capacity improved ([1]; anaesthetised rats, intravenous, as a consequence of the longer micturition interval) [%] | interval between voiding events ([1]; urethane-anaesthetised CD rats, 0.3, 1, 3 and 10 mg/kg intravenously, relative to control periods) | bladder capacity ([2]; FIG. 2) | micturition interval ([2]; P<0.05, FIG. 2) | average bladder pressure during the filling stages of the micturition cycle ([2]; P<0.05 relative to control periods, FIG. 3) |
| --- | --- | --- | --- | --- | --- | --- | --- | --- |
| CCC[C@@H](C)C[C@H](N)CC(=O)O.Cl | 142.5 to 142.7 | – | – | – | – | – | – | – |
| CCCC[C@@H](C)C[C@H](N)CC(=O)O.Cl | 142.5 to 143.3 | – | – | – | – | – | – | – |
| NCC1(CC(=O)O)CCCCC1 [gabapentin, 1-(aminomethyl)-cyclohexylacetic acid] | – | 9.89 ± 2.72 | did not have any adverse effects | 200 | significantly extended the interval between voiding events in a dose dependent manner | increased bladder capacity | significantly decreased | significantly decreased |
